According to ChEMBL document CHEMBL1159007, “Isolation and identification of xochitloldione and isoxochitlolone from Cnidosculus urens” (J Nat Prod, 1992):
Active and inactive are the calls of the source. The calls are words filed in the database; no cut-off is given here.

How the values were obtained:
[1] = tested on: Escherichia coli; assay: Antimicrobial activity against Escherichia coli; format: functional, organism-based
[2] = tested on: Staphylococcus aureus; assay: Antimicrobial activity against Staphylococcus aureus; format: functional, organism-based

Q: `Cc1cc2c(cc1O)C=C1C=CCC(C)(C)[C@@H]1CC2=O` was tested. Which Activity [1] did it give?
A: Active

Q: And the Activity [2]?
A: Active
